One data set has as its system NIH3T3 cells. The data set is described as follows: WST-1 cell viability assay, NIH3T3 fibroblasts. The class given is cell-based. Conditions: Mus musculus, NIH3T3 murine embryonic fibroblasts, 24 h treatment. As for the experimental part:
(§1) Murine embryonic fibroblast NIH3T3 cells were maintained in DMEM (Cat No. 043-30085, Wako Pure Chemical, Osaka, Japan) supplemented with 10% newborn calf serum (NBCS) at 37 °C and 5% CO2. Human cervix carcinoma HeLa cells were maintained in DMEM supplemented with 10% fetal bovine serum at 37 °C and 5% CO2. To determine the toxicity of BM and SL-BM, the WST-1 cell viability assay was employed as described previously. The cells (NIH3T3: 2000 per well; HeLa: 5000 per well) were seeded into all the wells of 96-well plates. After 24 h, the medium was replaced, and the cells were treated with the test compounds for 24 h. Then, the cells were incubated with a WST-1 solution (3.6 µg/µL WST-1, 70 ng/µL 1-methoxy phenazine methosulfate in 20 mM 4-(2-hydroxyethyl)-1-piperazineethanesufonic acid–KOH (pH 7.4); Dojindo, Kumamoto, Japan) for 1 h at 37 °C, and the absorbance of each well was recorded at 440 nm using a Multiskan FC microplate reader (Thermo Fisher Scientific).

For the next data set, the system named is HeLa cells. The data set is described as follows: WST-1 cell viability assay, HeLa cells. Format: cell-based. Conditions: HeLa human cervix carcinoma cells, 24 h treatment. As for the experimental part: as §1
Another data set addresses CYP2C19 (Homo sapiens, UniProt P33261). The data set is described as follows: CYP2C19 inhibition assay (CypExpress 2C19 kit, S-mephenytoin substrate, HPLC). Conditions: relative to BM.
For the next data set, the target named is CYP2C9 (Homo sapiens, UniProt P11712).

As a reminder, the IC50 is the concentration needed to halve the response being measured. A higher IC50 goes with weaker potency in that assay. Usually melting point stands for the temperature, or range, at which the solid turns liquid.

Sequence of CYP2C9 (P11712 whole entry): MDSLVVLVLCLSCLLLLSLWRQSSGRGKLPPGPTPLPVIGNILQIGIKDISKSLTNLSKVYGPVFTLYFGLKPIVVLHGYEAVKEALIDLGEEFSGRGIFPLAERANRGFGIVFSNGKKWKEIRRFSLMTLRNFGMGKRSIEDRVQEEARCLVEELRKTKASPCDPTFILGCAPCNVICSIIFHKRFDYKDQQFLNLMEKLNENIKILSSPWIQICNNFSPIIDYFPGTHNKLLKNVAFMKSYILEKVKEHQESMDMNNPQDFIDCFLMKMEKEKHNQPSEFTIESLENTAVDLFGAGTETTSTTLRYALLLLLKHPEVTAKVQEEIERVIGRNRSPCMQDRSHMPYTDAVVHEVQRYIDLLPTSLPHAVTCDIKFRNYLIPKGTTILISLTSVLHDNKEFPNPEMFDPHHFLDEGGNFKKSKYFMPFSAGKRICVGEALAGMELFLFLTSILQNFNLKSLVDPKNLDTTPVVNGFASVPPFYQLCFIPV
Sequence of CYP2C19 (P33261 whole entry): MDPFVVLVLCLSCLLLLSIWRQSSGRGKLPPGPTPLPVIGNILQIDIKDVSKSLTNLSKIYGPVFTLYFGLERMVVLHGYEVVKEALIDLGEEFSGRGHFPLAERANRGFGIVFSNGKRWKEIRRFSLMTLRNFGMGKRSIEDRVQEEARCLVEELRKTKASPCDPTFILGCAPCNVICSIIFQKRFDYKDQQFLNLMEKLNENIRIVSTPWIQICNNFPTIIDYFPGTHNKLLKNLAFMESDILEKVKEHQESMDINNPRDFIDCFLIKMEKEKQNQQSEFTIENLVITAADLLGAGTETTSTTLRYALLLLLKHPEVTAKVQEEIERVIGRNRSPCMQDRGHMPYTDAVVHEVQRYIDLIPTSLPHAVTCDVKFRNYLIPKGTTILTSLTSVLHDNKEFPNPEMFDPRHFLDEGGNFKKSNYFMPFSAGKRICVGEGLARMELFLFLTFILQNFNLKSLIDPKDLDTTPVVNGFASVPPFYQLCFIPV
Experimental for CYP2C19: (§2) Stock solutions of BM, SL-BM, and positive controls (each 5000 μM) were prepared in dimethyl sulfoxide (Fluka) and stored at –20 °C. The inhibitory effects of BM and SL-BM on the CYP2C9, 2C19, and 3A4 enzymes were examined using CypExpress^TM assay kits by employing diclofenac, S-mephenytoin, and testosterone substrates, respectively.
(§3) The substrates and products were analyzed using the HPLC system comprising a pump (Waters 510; Milford, MA, USA), an injector (Rheodyne 7125) with a 20 μL sample loop, and a UV detector (Waters 486). The data were evaluated by employing Millennium Chromatographic Manager software (Waters). HPLC analyses of diclofenac and 4′-hydroxydiclofenac (CYP2C9 assay) [39, 40], S-mephenytoin, and 4-hydroxymephenytoin [42] as well as testosterone and 6β-hydroxytestosterone (CYP3A4 assay) [41] were performed as described previously.
(§4) Data were derived from at least three independent experiments and represented as the mean ± the standard error of the mean (SEM) values. The statistical significance (p < 0.05 and p < 0.01) was established by employing a one-way ANOVA test (IBS SPSS Statistics, v. 21; Armonk, NY, USA). The metabolite formation (% of control) was plotted as a function of the logarithmic concentrations, and then the IC50 values were determined using GraphPad Prism 8 software (San Diego, CA, USA).
Experimental for CYP2C9: as §2, §3, §4

For the compound `CC(C)=CCC/C(C)=C/COc1c2ccoc2cc2oc(=O)ccc12` [Bergamottin, 5-geranoxypsoralen], the IC50 in the data set with NIH3T3 cells and in the data set with HeLa cells was above 50 µM throughout.
Take `C/C(=C\COc1c2ccoc2cc2oc(=O)ccc12)CCC=C1CC(C)(C)N([O])C(C)(C)C1` [SL-Bergamottin]: the melting point was in the range of 51 to 53 °C. The 50% inhibitory concentration (IC50) in the data set on NIH3T3 cells is above 50 µM. This compound returned an IC50 in the data set on HeLa cells of 17.3 µM. Further, at CYP2C19, the “fold weaker inhibitor of CYP2C19 than BM” value is on record as around 15 fold.
In the case of `CC(=O)CC(c1ccccc1)c1c(O)c2ccccc2oc1=O` (centres unmarked) [Warfarin, warfarin], at CYP2C9, the “IC50(rel): IC50 of the inhibitor divided by the substrate concentration” value amounted to 1.96 and the “α: IC50 of the inhibitor divided by the IC50 value of the positive control” value was determined as 1.00.

(Values after publication PMC7013880, “Synthesis of Spin-Labelled Bergamottin: A Potent CYP3A4 Inhibitor with Antiproliferative Activity” (International Journal of Molecular Sciences, 2020).)
